Experimental data taken from patent publication US7868026B2, “Therapeutic compounds” (Pfizer Inc., priority 2005, dated 2011).
Where two headings read alike, the source gives them in different places.

Columns and labels:
CYP3A4 [1] = molecular target: T1, CYP3A4 (Homo sapiens, UniProt P08684); assay: Determination of compound Kiapp against recombinant CYP3A4 enzyme (BFC fluorescent substrate); format: biochemical
Protocol: 1. Determination of compound Kiapp
A determination of the Kiapp of the compounds of the invention against recombinant CYP3A4 enzyme was performed as follows. The assay was performed in a 100 mM sodium phosphate buffer pH 7.0, 5 mM TCEP and containing 2% dimethylformamide (final concentration) upon addition of substrate and inhibitor. A typical reaction for the determination of Kiapp values was carried at room temperature in a solid black Costar u-bottom 96-well polypropylene plate. In each well, recombinant CYP3A4 enzyme (5.5 nM or 8 nM, final concentration depending on the commercial source of the enzyme) was pre-incubated in the presence of the inhibitor for at least 30 minutes in the assay buffer. When pre-incubation was completed (˜30 min), the reaction was initiated by adding NADPH (200 uM, final concentration), and 7-benzyloxy-4-(trifluoromethyl)-coumarin (BFC) (5 uM, final concentration). The oxidation of the coumarin substrate was recorded by a 96-well plate reader POLARstar (BMG LABTECH, Offenburg, Germany).
The initial reaction velocities were measured during the first 5 min of the reaction when the release of the fluorescent product is linear with time, in the absence and in the presence of various concentrations of inhibitors. For non-partial & partial inhibitors, the Kiapp values were determined by using the equation for tight-binding inhibitor developed by Morrison, J F (Morrison J F. Biochim Biophys Acta. 1969, 185: 269-86) and by Szedlaseck S E et al. (Szedlascek, S. E., Ostafe, V., Serban, M., and Vlad, M.O. Biochem. J. 1988, 254:311-312), respectively.
The fluorescent substrate BFC was purchased from Sigma (St Louis, Mo.). Two commercial sources of recombinant enzymes were used in this study: recombinant CYP3A4−b5 enzyme (Baculosomes®) was purchased from Invitrogen (Carlsbad, Calif.) and the recombinant CYP3A4+b5 enzyme (Supersomes®) was purchased from BD Biosciences (Woburn, Mass.).

CYP3A4 [2] = molecular target: T1, CYP3A4; assay: Determination of IC50 against CYP3A4 by measurement of inhibition of midazolam metabolism (human liver microsomes, 1-hydroxymidazolam by LC-MS/MS); format: biochemical; design: 0.1 mg/mL human liver microsomes; settings: 2 μM midazolam, 0.1 mg/mL human liver microsomes
Protocol: 3. Determination of IC50 Against CYP3A4 by Measurement of Inhibition of Midazolam Metabolism
This assay was performed using a standard 96 well plate design. […] The incubation substrate mix contains 2 μM midazolam, 0.1 mg/mL human liver microsomes, 1 mM NADPH, and potassium phosphate buffer (100 mM, pH 7.4). Quantitation of metabolite peak area ratio against internal standard is determined by LC-MS/MS analysis. The production of 1-hydroxymidazolam from midazolam metabolism is determined after incubation for eight minutes by comparison to a standard curve generated for the metabolite.
Samples were analyzed in the MRM mode using a Sciex API 3000 mass spectrometer (Applied Biosystems, Foster City, Calif.) with a Paradigm MS4 binary pump (Michrom BioResources Inc., Auburn, Calif.) and a LEAP CTC PAL autosampler (LEAP Technologies, Carrboro, N.C.). A Phenomenex Synergi, 4μ, Polar-RP, 10×2.0 mm column (Phenomenex, Torrance, Calif.) was used for separation with a mobile phase composition of: 0.1% formic acid in water (A) and: 0.1% formic acid in methanol (B). The following gradient was used: […]
The sample injection volume was 10 μL and flow was split post-column with 0.4 mL/min going to the mass spectrometer. Analysis was performed using the following API 3000 mass spectrometer settings: […]

[3] = Baculo. enzyme preparation, read-out: Kiapp (BFC, Baculo.)
[4] = Super. enzyme preparation, read-out: Kiapp (BFC, Super.)

T1 sequence (P08684 whole entry): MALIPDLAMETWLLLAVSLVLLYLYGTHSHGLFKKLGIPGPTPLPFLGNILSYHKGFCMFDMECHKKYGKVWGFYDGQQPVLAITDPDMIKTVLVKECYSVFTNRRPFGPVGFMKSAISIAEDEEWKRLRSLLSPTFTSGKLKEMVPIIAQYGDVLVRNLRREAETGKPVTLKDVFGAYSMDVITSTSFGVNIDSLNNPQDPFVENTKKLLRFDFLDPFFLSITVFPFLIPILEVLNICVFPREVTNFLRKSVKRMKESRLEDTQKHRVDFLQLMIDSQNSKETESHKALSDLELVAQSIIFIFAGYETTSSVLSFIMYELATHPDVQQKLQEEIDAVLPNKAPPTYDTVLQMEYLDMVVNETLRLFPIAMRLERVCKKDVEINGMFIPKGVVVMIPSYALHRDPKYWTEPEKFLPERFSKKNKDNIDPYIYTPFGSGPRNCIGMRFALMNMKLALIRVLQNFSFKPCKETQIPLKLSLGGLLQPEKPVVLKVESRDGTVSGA

| Ki (CYP3A4 [1]; [3]) | Ki (CYP3A4 [1]; [4]) | IC50 (CYP3A4 [2]) | SMILES |
| --- | --- | --- | --- |
| 159 nM | 14.8 nM | 20 nM | Nc1cncc(NS(=O)(=O)c2ccccc2C(=O)NCc2ccc(F)c(F)c2)c1 [Example 117, 2-{[(5-aminopyridin-3-yl)amino]sulfonyl}-N-(34-difluorobenzyl)benzamide] |
| 87.6 nM | 9.6 nM | 12 nM | Cc1cncc(NS(=O)(=O)c2ccccc2C(=O)N(C)Cc2ccccc2F)c1 [Example 129, N-(2-fluorobenzyl)-N-methyl-2-{[(5-methylpyridin-3-yl)amino]sulfonyl}benzamide] |
| > 1000 nM | 329 nM | > 750 nM | COc1cncc(NS(=O)(=O)c2ccccc2C(=O)NCC(F)(F)C(F)(F)C(F)(F)F)c1 [Example 131, N-(2,2,3,3,4,4,4-heptafluorobutyl)-2-{[(5-methoxypyridin-3-yl)amino]sulfonyl}benzamide] |
| 40.6 nM | 8.4 nM | 8 nM | COc1cncc(NS(=O)(=O)c2ccccc2C(=O)NCc2ccc(Cl)c(F)c2)c1 [Example 132, N-(4-chloro-3-fluorobenzyl)-2-{[(5-methoxypyridin-3-yl)amino]sulfonyl}benzamide] |
| 67.8 nM | 11.6 nM | 18 nM | COc1cncc(NS(=O)(=O)c2ccccc2C(=O)NCc2c(Cl)cccc2Cl)c1 [Example 133, N-(2,6-dichlorobenzyl)-2-{[(5-methoxypyridin-3-yl)amino]sulfonyl}benzamide] |
| 69.7 nM | 8.7 nM | 14 nM | COc1cncc(NS(=O)(=O)c2ccccc2C(=O)NCCc2ccc(C(F)(F)F)c(F)c2)c1 [Example 134, N-{2-[3-fluoro-(trifluoromethyl)phenyl]ethyl}-2-{[(5-methoxypyridin-3-yl)amino]sulfonyl}benzamide] |
| 24.8 nM | 4.9 nM | 18 nM | COc1cncc(NS(=O)(=O)c2ccccc2C(=O)NC(C)Cc2ccc(F)c(F)c2)c1 (stereo not drawn) [Example 135] |
| 59.8 nM | 4.8 nM | 10 nM | COc1cncc(NS(=O)(=O)c2ccccc2C(=O)NCCc2ccc(C)c(F)c2F)c1 [Example 136, N-[2-(2,3-difluoro-4-methylphenyl)ethyl]-2-{[(5-methoxypyridin-3-yl)amino]sulfonyl}benzamide] |
| 115 nM | 7.3 nM | 18 nM | COc1cncc(NS(=O)(=O)c2ccccc2C(=O)NCCc2ccc(F)c(F)c2)c1 [Example 137, N-[2-(3,4-difluorophenyl)ethyl]-2-{[(5-methoxypyridin-3-yl)amino]sulfonyl}benzamide] |
| 19.6 nM | 2.7 nM | 16 nM | COc1cncc(NS(=O)(=O)c2ccccc2C(=O)NCc2ccc(C)c(Cl)c2)c1 [Example 138, N-(3-chloro-4-methylbenzyl)-2-{[(5-methoxypyridin-3-yl)amino]sulfonyl}benzamide] |

The remaining lines, values behind:

| SMILES | Ki (CYP3A4 [1]; [3]) | Ki (CYP3A4 [1]; [4]) | IC50 (CYP3A4 [2]) |
| --- | --- | --- | --- |
| CCC(C)CNC(=O)c1ccccc1S(=O)(=O)Nc1cncc(C)c1 (stereo not drawn) [Example 118, N-(2-methylbutyl)-2-{[(5-methylpyridin-3-yl)amino]sulfonyl}benzamide] | 103 nM | 13.5 nM | 18 nM |
| CCOc1ccncc1NS(=O)(=O)c1ccccc1C(=O)NC(C)CC (stereo not drawn) [Example 119, N-(sec-butyl)-2-{[(4-ethoxypyridin-3-yl)amino]sulfonyl}benzamide] | 249 nM | 71.2 nM | 45 nM |
| CCC(C)NC(=O)c1ccccc1S(=O)(=O)Nc1cnccc1OC (stereo not drawn) [Example 120, N-(sec-butyl)-2-{[(4-methoxypyridin-3-yl)amino]sulfonyl}benzamide] | 487 nM | 140 nM | 86 nM |
| CCC(C)NC(=O)c1ccccc1S(=O)(=O)Nc1cncc(C)c1 (stereo not drawn) [Example 121, N-(sec-butyl)-2-{[(5-methylpyridin-3-yl)amino]sulfonyl}benzamide] | 490 nM | 71.2 nM | 31 nM |
| CCOc1ccncc1NS(=O)(=O)c1ccccc1C(=O)N(C)Cc1ccc(C(F)(F)F)cc1 [Example 122, 2-{[(4-ethoxypyridin-3-yl)amino]sulfonyl}-N-methyl-N-[4-(trifluoromethyl)benzyl]benzamide] | 49.5 nM | 10 nM | 31 nM |
| COc1ccncc1NS(=O)(=O)c1ccccc1C(=O)N(C)Cc1ccc(C(F)(F)F)cc1 [Example 123, 2-{[(4-methoxypyridin-3-yl)amino]sulfonyl}-N-methyl-N-[4-(trifluoromethyl)benzyl]benzamide] | 72.5 nM | 15.2 nM | 10 nM |
| CCOc1ccncc1NS(=O)(=O)c1ccccc1C(=O)N(C)Cc1ccccc1F [Example 124, 2-{[(4-ethoxypyridin-3-yl)amino]sulfonyl}-N-(2-fluorobenzyl)-N-methylbenzamide] | 136 nM | 18 nM | 14 nM |
| COc1ccncc1NS(=O)(=O)c1ccccc1C(=O)N(C)Cc1ccccc1F [Example 125, N-(2-fluorobenzyl)-2-{[(4-methoxypyridin-3-yl)amino]sulfonyl}-N-methylbenzamide] | 185 nM | 31.2 nM | 20 nM |
| COCCN(C(=O)c1ccccc1S(=O)(=O)Nc1cnccc1OC)C(C)C [Example 127, N-isopropyl-N-(2-methoxyethyl)-2-{[(4-methoxypyridin-3-yl)amino]sulfonyl}benzamide] | 694 nM | 282 nM | 107 nM |
| COCCN(C(=O)c1ccccc1S(=O)(=O)Nc1cccnc1)C(C)C [Example 128, N-isopropyl-N-(2-methoxyethyl)-2-[(pyridin-3-ylamino)sulfonyl]benzamide] | 448 nM | 54.9 nM | 67 nM |
| COCCN(C(=O)c1ccccc1S(=O)(=O)Nc1cncc(C)c1)C(C)C [Example 130, N-isopropyl-N-(2-methoxyethyl)-2-{[(5-methylpyridin-3-yl)amino]sulfonyl}benzamide] | 134 nM | 62.8 nM | 22 nM |
| Cc1ccncc1NS(=O)(=O)c1ccccc1C(=O)N(C)Cc1ccccc1 [Example 139, N-benzyl-N-methyl-2-{[(4-methylpyridin-3-yl)amino]sulfonyl}benzamide] | 388 nM | 51.1 nM | 48 nM |
| CN(Cc1ccc(C(F)(F)F)cc1)C(=O)c1ccccc1S(=O)(=O)Nc1cccnc1 [Example 140, N-methyl-2-[(pyridin-3-ylamino)sulfonyl]-N-[4-(trifluoromethyl)benzyl]benzamide] | 160 nM | 17.3 nM | 56 nM |
| CN(Cc1ccc(F)cc1)C(=O)c1ccccc1S(=O)(=O)Nc1cccnc1 [Example 141, N-(4-fluorobenzyl)-N-methyl-2-[(pyridin-3-ylamino)sulfonyl]benzamide] | 172 nM | 21.1 nM | 36 nM |
| CCOc1ccncc1NS(=O)(=O)c1ccccc1C(=O)N(C)Cc1ccc(F)cc1 [Example 142, 2-{[(4-ethoxypyridin-3-yl)amino]sulfonyl}-N-(4-fluorobenzyl)-N-methylbenzamide] | 111 nM | 11.8 nM | 26 nM |
| COc1ccncc1NS(=O)(=O)c1ccccc1C(=O)N(C)Cc1ccc(F)cc1 [Example 143, N-(4-fluorobenzyl)-2-{[(4-methoxypyridin-3-yl)amino]sulfonyl}-N-methylbenzamide] | 169 nM | 29 nM | 58 nM |
| Cc1ccncc1NS(=O)(=O)c1ccccc1C(=O)N(C)Cc1ccc(F)cc1 [Example 144, N-(4-fluorobenzyl)-N-methyl-2-{[(4-methylpyridin-3-yl)amino]sulfonyl}benzamide] | 327 nM | 39 nM | 72 nM |
